From PubChem BioAssay (NCI)
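Tested at 5 concentrations; 48 h exposure; 96-well plates; endpoints linearly interpolated, else capped at highest concentration. TGI: total growth inhibition.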

How the values were obtained:
Assay in all cases: NCI-60 cell line screen, 48 h
SK-OV-3 ovarian = tested on: SK-OV-3 ovarian
SK-MEL-5 melanoma = tested on: SK-MEL-5 melanoma
DLD-1 colon = tested on: DLD-1 colon
NCI-H226 lung = tested on: NCI-H226 lung
OVCAR-8 ovarian = tested on: OVCAR-8 ovarian
NCI-H460 lung = tested on: NCI-H460 lung
SN12C renal = tested on: SN12C renal
NCI-H522 lung = tested on: NCI-H522 lung
MOLT-4 leukemia = tested on: MOLT-4 leukemia
TK-10 renal = tested on: TK-10 renal
HCT-15 colon = tested on: HCT-15 colon
SF-295 CNS = tested on: SF-295 CNS
M19-MEL melanoma = tested on: M19-MEL melanoma
EKVX NSCLC = tested on: EKVX NSCLC
CCRF-CEM leukemia = tested on: CCRF-CEM leukemia
NCI-H23 lung = tested on: NCI-H23 lung
U251 CNS = tested on: U251 CNS
HCC-2998 colon = tested on: HCC-2998 colon
MALME-3M melanoma = tested on: MALME-3M melanoma
HOP-92 NSCLC = tested on: HOP-92 NSCLC
RXF-631 renal = tested on: RXF-631 renal
IGROV1 ovarian = tested on: IGROV1 ovarian
SK-MEL-28 melanoma = tested on: SK-MEL-28 melanoma
UO-31 renal = tested on: UO-31 renal
CAKI-1 renal = tested on: CAKI-1 renal
SNB-75 CNS = tested on: SNB-75 CNS
SF-539 CNS = tested on: SF-539 CNS
K-562 leukemia = tested on: K-562 leukemia
OVCAR-3 ovarian = tested on: OVCAR-3 ovarian
OVCAR-4 ovarian = tested on: OVCAR-4 ovarian
SF-268 CNS = tested on: SF-268 CNS
HOP-62 NSCLC = tested on: HOP-62 NSCLC
UACC-62 melanoma = tested on: UACC-62 melanoma
KM20L2 colon = tested on: KM20L2 colon
A549 NSCLC = tested on: A549 NSCLC
DMS 114 small cell lung = tested on: DMS 114 small cell lung
M14 melanoma = tested on: M14 melanoma
SNB-19 CNS = tested on: SNB-19 CNS
786-0 renal = tested on: 786-0 renal
UACC-257 melanoma = tested on: UACC-257 melanoma
COLO 205 colon = tested on: COLO 205 colon
LXFL 529 NSCLC = tested on: LXFL 529 NSCLC
SW-620 colon = tested on: SW-620 colon
DMS 273 small cell lung = tested on: DMS 273 small cell lung
KM12 colon = tested on: KM12 colon
A498 renal = tested on: A498 renal
OVCAR-5 ovarian = tested on: OVCAR-5 ovarian
SK-MEL-2 melanoma = tested on: SK-MEL-2 melanoma
ACHN renal = tested on: ACHN renal
HL-60(TB) leukemia = tested on: HL-60(TB) leukemia
SNB-78 CNS = tested on: SNB-78 CNS
HOP-18 NSCLC = tested on: HOP-18 NSCLC
RPMI-8226 leukemia = tested on: RPMI-8226 leukemia
SR leukemia = tested on: SR leukemia
LOX IMVI melanoma = tested on: LOX IMVI melanoma
RXF 393 renal = tested on: RXF 393 renal
HT29 colon = tested on: HT29 colon
HCT-116 colon = tested on: HCT-116 colon

Measured: TGI

CCn1c(=O)nc2n(-c3ccc(SC)cc3)c3ccccc3nc-2c1=O
not listed: SR leukemia | LOX IMVI melanoma | RXF 393 renal | HT29 colon | HCT-116 colon
> 100 µM: all other assays above

CC(=O)OC1COC(N2C(=O)C(=O)c3ccccc32)C(OC(C)=O)C1OC(C)=O (stereo not given)
not listed: OVCAR-5 ovarian | HL-60(TB) leukemia | HOP-18 NSCLC | HCT-116 colon
> 100 µM: all other assays above

CN(C(=O)C12C3C4C1C1C2C3C41C#N)C(C)(C)C (stereo not given)
not listed: HCT-15 colon | HOP-92 NSCLC | HOP-18 NSCLC | SR leukemia | RXF 393 renal
> 100 µM: all other assays above
